Measurements reported in patent US12077503B2, “Substituted cyclic amides and their use as herbicides” (FMC CORPORATION, priority 2015, dated 2024).

Key:
Format in all cases: in vivo
[1] = tested on: corn (Zea mays); test: Test G Post-Emergence Protocol; settings: Zea mays, post-emergence, 312 h; for plant injury at 15.625 g/ha: 15.625 g ai/ha, evaluated after 13 days (100=total damage to plant; 0=no damage to plant), read-out: Corn damage rating; for plant injury at 62.5 g/ha: 62.5 g ai/ha, read-out: Corn damage rating (100=total damage to plant; 0=no damage to plant); for plant injury at 62.5 g/ha / plant injury at 250 g/ha: evaluated after 13 days; for plant injury at 250 g/ha: 250 g ai/ha, read-out: damage to plant, Corn (100=total damage to plant; 0=no damage to plant)
Method in brief: (§1)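 Sow in soil; grow 8 d (24/16 °C, 14 h light, 65% humidity); spray 15.625/62.5/250 g/ha in acetone:water 50:50 + 0.5% Tween 20; grow on, water twice daily; score damage 0–100 at 13 d.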

[2] = tested on: ivy-leaved morning glory (Ipomoea hederacea); test: Test G Post-Emergence Protocol; settings: Ipomoea, post-emergence, 312 h; for pest or weed control at 15.625 g/ha: 15.625 g ai/ha, evaluated after 13 days (100=total damage to plant; 0=no damage to plant), read-out: Morningglory, Ivy-leaved damage rating; for pest or weed control at 62.5 g/ha: 62.5 g ai/ha, read-out: Morningglory, Ivy-leaved damage rating (100=total damage to plant; 0=no damage to plant); for pest or weed control at 62.5 g/ha / pest or weed control at 250 g/ha: evaluated after 13 days; for pest or weed control at 250 g/ha: 250 g ai/ha, read-out: damage to plant, Morningglory, Ivy-leaved (100=total damage to plant; 0=no damage to plant)
Method in brief: as §1

[3] = tested on: redroot pigweed (Amaranthus retroflexus); test: Test G Post-Emergence Protocol; settings: Amaranthus retroflexus, post-emergence, 312 h; for pest or weed control at 15.625 g/ha: 15.625 g ai/ha, evaluated after 13 days (100=total damage to plant; 0=no damage to plant), read-out: Pigweed, Redroot damage rating; for pest or weed control at 62.5 g/ha: 62.5 g ai/ha, read-out: Pigweed, Redroot damage rating (100=total damage to plant; 0=no damage to plant); for pest or weed control at 62.5 g/ha / pest or weed control at 250 g/ha: evaluated after 13 days; for pest or weed control at 250 g/ha: 250 g ai/ha, read-out: damage to plant, Pigweed, Redroot (100=total damage to plant; 0=no damage to plant)
Method in brief: as §1

[4] = tested on: barnyardgrass (Echinochloa crus-galli); test: Test G Post-Emergence Protocol; settings: Echinochloa crus-galli, post-emergence, 312 h; for pest or weed control at 15.625 g/ha: 15.625 g ai/ha, evaluated after 13 days (100=total damage to plant; 0=no damage to plant), read-out: Barnyardgrass damage rating; for pest or weed control at 62.5 g/ha: 62.5 g ai/ha, read-out: Barnyardgrass damage rating (100=total damage to plant; 0=no damage to plant); for pest or weed control at 62.5 g/ha / pest or weed control at 250 g/ha: evaluated after 13 days; for pest or weed control at 250 g/ha: 250 g ai/ha, read-out: damage to plant, Barnyardgrass (100=total damage to plant; 0=no damage to plant)
Method in brief: as §1

[5] = tested on: velvetleaf (Abutilon theophrasti); test: Test G Post-Emergence Protocol; settings: Abutilon theophrasti, post-emergence, 312 h; for pest or weed control at 15.625 g/ha: 15.625 g ai/ha, evaluated after 13 days (100=total damage to plant; 0=no damage to plant), read-out: Velvetleaf damage rating; for pest or weed control at 62.5 g/ha: 62.5 g ai/ha, read-out: Velvetleaf damage rating (100=total damage to plant; 0=no damage to plant); for pest or weed control at 62.5 g/ha / pest or weed control at 250 g/ha: evaluated after 13 days; for pest or weed control at 250 g/ha: 250 g ai/ha, read-out: damage to plant, Velvetleaf (100=total damage to plant; 0=no damage to plant)
Method in brief: as §1

[6] = tested on: giant foxtail (Setaria faberi); test: Test G Post-Emergence Protocol; settings: Setaria faberi, post-emergence, 312 h; for pest or weed control at 15.625 g/ha: 15.625 g ai/ha, evaluated after 13 days (100=total damage to plant; 0=no damage to plant), read-out: Foxtail, Giant damage rating; for pest or weed control at 62.5 g/ha: 62.5 g ai/ha, read-out: Foxtail, Giant damage rating (100=total damage to plant; 0=no damage to plant); for pest or weed control at 62.5 g/ha / pest or weed control at 250 g/ha: evaluated after 13 days; for pest or weed control at 250 g/ha: 250 g ai/ha, read-out: damage to plant, Foxtail, Giant (100=total damage to plant; 0=no damage to plant)
Method in brief: as §1

[7] = tested on: corn (Zea mays); test: Test G Pre-Emergence Protocol; settings: Zea mays, pre-emergence, 312 h, evaluated after 13 days; for plant injury at 15.625 g/ha: 15.625 g ai/ha; for plant injury at 15.625 g/ha / plant injury at 250 g/ha: read-out: Corn damage rating (100=total damage to plant; 0=no damage to plant); for plant injury at 62.5 g/ha: 62.5 g ai/ha, 100=total damage to plant, 0=no damage to plant, read-out: plant damage rating, Corn; for plant injury at 250 g/ha: 250 g ai/ha
Method in brief: (§2)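 Pots of seeds in standard soil were grown for one day in a glasshouse (24/16 °C day/night, 14 h light, 65% humidity), then sprayed with compound in acetone/water 50:50 with 0.5% Tween 20 at 15.625, 62.5 or 250 g/ha. Damage was scored after 13 days on a 0 (none) to 100 (total) scale.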

[8] = tested on: ivy-leaved morning glory (Ipomoea hederacea); test: Test G Pre-Emergence Protocol; settings: Ipomoea, pre-emergence, 312 h, evaluated after 13 days; for pest or weed control at 15.625 g/ha: 15.625 g ai/ha, read-out: Morning-glory, Ivy-leaved damage rating (100=total damage to plant; 0=no damage to plant); for pest or weed control at 62.5 g/ha: 62.5 g ai/ha, 100=total damage to plant, 0=no damage to plant, read-out: plant damage rating, Morningglory, Ivy-leaved; for pest or weed control at 250 g/ha: 250 g ai/ha, read-out: Morningglory, Ivy-leaved damage rating (100=total damage to plant; 0=no damage to plant)
Method in brief: as §2

[9] = tested on: redroot pigweed (Amaranthus retroflexus); test: Test G Pre-Emergence Protocol; settings: Amaranthus retroflexus, pre-emergence, 312 h, evaluated after 13 days; for pest or weed control at 15.625 g/ha: 15.625 g ai/ha; for pest or weed control at 15.625 g/ha / pest or weed control at 250 g/ha: read-out: Pigweed, Redroot damage rating (100=total damage to plant; 0=no damage to plant); for pest or weed control at 62.5 g/ha: 62.5 g ai/ha, 100=total damage to plant, 0=no damage to plant, read-out: plant damage rating, Pigweed, Redroot; for pest or weed control at 250 g/ha: 250 g ai/ha
Method in brief: as §2

[10] = tested on: barnyardgrass (Echinochloa crus-galli); test: Test G Pre-Emergence Protocol; settings: Echinochloa crus-galli, pre-emergence, 312 h, evaluated after 13 days; for pest or weed control at 15.625 g/ha: 15.625 g ai/ha, read-out: Barnyard grass damage rating (100=total damage to plant; 0=no damage to plant); for pest or weed control at 62.5 g/ha: 62.5 g ai/ha, 100=total damage to plant, 0=no damage to plant, read-out: plant damage rating, Barnyardgrass; for pest or weed control at 250 g/ha: 250 g ai/ha, read-out: Barnyardgrass damage rating (100=total damage to plant; 0=no damage to plant)
Method in brief: as §2

[11] = tested on: velvetleaf (Abutilon theophrasti); test: Test G Pre-Emergence Protocol; settings: Abutilon theophrasti, pre-emergence, 312 h, evaluated after 13 days; for pest or weed control at 15.625 g/ha: 15.625 g ai/ha; for pest or weed control at 15.625 g/ha / pest or weed control at 250 g/ha: read-out: Velvetleaf damage rating (100=total damage to plant; 0=no damage to plant); for pest or weed control at 62.5 g/ha: 62.5 g ai/ha, 100=total damage to plant, 0=no damage to plant, read-out: plant damage rating, Velvetleaf; for pest or weed control at 250 g/ha: 250 g ai/ha
Method in brief: as §2

[12] = tested on: giant foxtail (Setaria faberi); test: Test G Pre-Emergence Protocol; settings: Setaria faberi, pre-emergence, 312 h, evaluated after 13 days; for pest or weed control at 15.625 g/ha: 15.625 g ai/ha; for pest or weed control at 15.625 g/ha / pest or weed control at 250 g/ha: read-out: Foxtail, Giant damage rating (100=total damage to plant; 0=no damage to plant); for pest or weed control at 62.5 g/ha: 62.5 g ai/ha, 100=total damage to plant, 0=no damage to plant, read-out: plant damage rating, Foxtail, Giant; for pest or weed control at 250 g/ha: 250 g ai/ha
Method in brief: as §2

SMILES	plant injury at 15.625 g/ha [1]	plant injury at 62.5 g/ha [1]	plant injury at 250 g/ha [1]	pest or weed control at 15.625 g/ha [2]	pest or weed control at 62.5 g/ha [2]	pest or weed control at 250 g/ha [2]	pest or weed control at 15.625 g/ha [3]	pest or weed control at 62.5 g/ha [3]	pest or weed control at 250 g/ha [3]	pest or weed control at 15.625 g/ha [4]	pest or weed control at 62.5 g/ha [4]	pest or weed control at 250 g/ha [4]	pest or weed control at 15.625 g/ha [5]	pest or weed control at 62.5 g/ha [5]	pest or weed control at 250 g/ha [5]	pest or weed control at 15.625 g/ha [6]	pest or weed control at 62.5 g/ha [6]	pest or weed control at 250 g/ha [6]	plant injury at 15.625 g/ha [7]	plant injury at 62.5 g/ha [7]	other results
Cc1cc([C@@H]2CN(C)C(=O)[C@H]2C(=O)Nc2cccc(F)c2F)cnc1Cl (racemic) [Compound 1493]	10%	40%	80%	0%	0%	0%	0%	0%	0%	40%	70%	80%	0%	0%	0%	40%	60%	60%	0%	0%	plant injury at 250 g/ha [7]: 70%; pest or weed control at 15.625 g/ha [8]: 0%; pest or weed control at 62.5 g/ha [8]: 0%; pest or weed control at 250 g/ha [8]: 10%; pest or weed control at 15.625 g/ha [9]: 0%; pest or weed control at 62.5 g/ha [9]: 0%; pest or weed control at 250 g/ha [9]: 0%; pest or weed control at 15.625 g/ha [10]: 40%; pest or weed control at 62.5 g/ha [10]: 90%; pest or weed control at 250 g/ha [10]: 90%; pest or weed control at 15.625 g/ha [11]: 0%; pest or weed control at 62.5 g/ha [11]: 0%; pest or weed control at 250 g/ha [11]: 0%; pest or weed control at 15.625 g/ha [12]: 60%; pest or weed control at 62.5 g/ha [12]: 80%; pest or weed control at 250 g/ha [12]: 90%
CN1C[C@@H](c2cc(Cl)nc(Cl)c2)[C@H](C(=O)Nc2cccc(F)c2F)C1=O (racemic) [Compound 1494]	10%	30%	80%	10%	40%	50%	0%	0%	0%	30%	60%	50%	0%	0%	30%	60%	60%	60%	0%	20%	plant injury at 250 g/ha [7]: 60%; pest or weed control at 15.625 g/ha [8]: 0%; pest or weed control at 62.5 g/ha [8]: 0%; pest or weed control at 250 g/ha [8]: 70%; pest or weed control at 15.625 g/ha [9]: 0%; pest or weed control at 62.5 g/ha [9]: 0%; pest or weed control at 250 g/ha [9]: 30%; pest or weed control at 15.625 g/ha [10]: 80%; pest or weed control at 62.5 g/ha [10]: 80%; pest or weed control at 250 g/ha [10]: 90%; pest or weed control at 15.625 g/ha [11]: 0%; pest or weed control at 62.5 g/ha [11]: 0%; pest or weed control at 250 g/ha [11]: 0%; pest or weed control at 15.625 g/ha [12]: 70%; pest or weed control at 62.5 g/ha [12]: 80%; pest or weed control at 250 g/ha [12]: 80%
CN1C[C@H](c2ccc3c(c2)CCCC3)[C@@H](C(=O)Nc2cccc(F)c2F)C1=O (racemic) [Compound 1496]	10%	20%	50%	0%	0%	0%	0%	0%	0%	20%	50%	60%	0%	0%	20%	20%	60%	60%	0%	0%	plant injury at 250 g/ha [7]: 20%; pest or weed control at 15.625 g/ha [8]: 0%; pest or weed control at 62.5 g/ha [8]: 0%; pest or weed control at 250 g/ha [8]: 0%; pest or weed control at 15.625 g/ha [9]: 0%; pest or weed control at 62.5 g/ha [9]: 0%; pest or weed control at 250 g/ha [9]: 0%; pest or weed control at 15.625 g/ha [10]: 0%; pest or weed control at 62.5 g/ha [10]: 40%; pest or weed control at 250 g/ha [10]: 80%; pest or weed control at 15.625 g/ha [11]: 0%; pest or weed control at 62.5 g/ha [11]: 0%; pest or weed control at 250 g/ha [11]: 0%; pest or weed control at 15.625 g/ha [12]: 0%; pest or weed control at 62.5 g/ha [12]: 50%; pest or weed control at 250 g/ha [12]: 80%
